According to patent US20110269817A1, “COMPOSITIONS AND METHODS RELATED TO SIRT1 FUNCTION” (The Regents of the University of California, priority 2008, published 2011):

Key:
[1] = system: Per2 and Dbp gene expression in MEFs; assay: Per2 and Dbp gene expression in serum-entrained MEFs treated with FK866, q-PCR; format: cell-based, mouse; details: MEFs pretreated with 10 nM FK866, then serum-stimulated
Method: Each quantitative real-time RT-PCR was performed using the Chromo4 real time detection system (BIO-RAD). […] The reaction was first incubated at 95° C. for 3 min, followed by 40 cycles at 95° C. for 30 s and 60° C. for 1 min.

[2] = system: BMAL1 Lys537 acetylation; assay: BMAL1 Lys537 acetylation profile in serum-entrained MEFs treated with FK866; format: cell-based, mouse; details: cultured MEFs
Method: This illustrates Nampt modulation of the circadian clock. Panel A depicts Pert and Dbp gene expression levels in serum-entrained MEFs treated with 10 nM FK866 or EtOH as control (solvent:ctrl) were analyzed by q-PCR. The highest value for each gene in EtOH treated MEFs was set to 1. All data presented are the means±SEM of three independent samples. […] Cell extracts prepared from indicated time points were processed to visualize BMAL1 acetylation using the anti-acetyl specific BMAL1 antibody as described herein. Input samples were probed with anti-BMAL1 and anti-GAPDH antibodies. Panel C is a schematic representation of the transcription-enzymatic interplay by which the circadian machinery governs the intracellular levels of NAD^+. The NAD^+-dependent deacetylase SIRT1 is thereby controlling the oscillatory synthesis of its own coenzyme.
NAMPT inhibitor “FK866” treatment experiments MEFs in growing phase (−50% confluent) were pre-treated with 10 nM FK866 dissolved in ethanol/serum-free DMEM 16 hr prior to high serum treatment. After 2 hr serum treatment, medium were changed to serum-free medium containing 10 nM FK866. […]

[3] = target: Nampt (Homo sapiens, UniProt P43490); details: literature (ref. 30); cited from earlier work
Nampt, sequence (P43490 whole entry): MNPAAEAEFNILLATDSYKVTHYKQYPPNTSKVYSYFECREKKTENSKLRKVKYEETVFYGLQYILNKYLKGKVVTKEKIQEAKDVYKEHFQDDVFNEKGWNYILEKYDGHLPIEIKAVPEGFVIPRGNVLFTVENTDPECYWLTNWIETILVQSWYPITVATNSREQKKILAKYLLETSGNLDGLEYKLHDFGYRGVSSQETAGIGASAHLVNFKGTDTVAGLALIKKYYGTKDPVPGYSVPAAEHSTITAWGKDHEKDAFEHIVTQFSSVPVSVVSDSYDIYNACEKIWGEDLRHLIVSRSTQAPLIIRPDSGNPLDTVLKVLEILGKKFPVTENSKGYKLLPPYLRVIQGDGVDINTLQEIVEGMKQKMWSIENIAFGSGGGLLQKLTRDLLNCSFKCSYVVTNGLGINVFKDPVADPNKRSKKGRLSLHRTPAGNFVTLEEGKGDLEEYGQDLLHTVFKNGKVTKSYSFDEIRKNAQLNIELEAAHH

Structure (SMILES): O=C(/C=C/c1cccnc1)NCCCCC1CCN(C(=O)c2ccccc2)CC1 [FK866]
- increase of amplitude of oscillation (Per2 and Dbp), average [1]: 30-40%
- onset of the circadian peak for both genes (Per2 and Dbp), earlier by [1]: 3 to 4 h
- BMAL1 acetylation at K537 ([2]; 10 nM FK866): heavily increased and displays a broader peak
- effect on BMAL1 protein levels ([2]; 10 nM FK866, any time of the circadian cycle): no major effect
- inhibition of Nampt enzymatic activity [3]: specifically inhibits Nampt enzymatic activity
